Test results from patent US10463694B2, “Functional segregated telodendrimers and nanocarriers and methods of making and using same” (The Research Foundation for the State University of New York, priority 2014, dated 2019).
Several values for one entry are separate records, joined by “and”; a condition that tells them apart may be missing. Equal entries are not always repeated.

Columns and labels:
[1] = tested on: SKOV-3 ovarian cancer xenografts; test: In vivo anticancer efficacy
Protocol: Xenograft Mouse Models. Female athymic nude mice (Nu/Nu strain), 5-6 weeks age, were purchased from Harlan (Livermore, Calif.). All animals were kept under pathogen-free conditions according to AAALAC (Association for Assessment and Accreditation of Laboratory Animal Care) guidelines and were allowed to acclimatize for at least 4 days prior to any experiments. All animal experiments were performed in compliance with institutional guidelines and according to protocol approved by the Animal Use and Care Administrative Advisory Committee. SKOV-3 ovarian cancer cells (7×10^6) in a 100/IL of mixture of PBS and Matrigel (1:1 v/v) without fetal bovine serum (FBS) were injected subcutaneously into the flanks of nude mice to form nodules.
In vivo anticancer efficacy. Nude mice bearing human SKOV3 ovarian cancer tumor (approximately 150 mm^3) were randomly divided into 6 groups (n=5), including control (PBS only), free CDDP (4 mg/kg CDDP), TM(PTX) (3 mg/kg PTX), PEG(CDDP) (4 mg/kg CDDP), TM(CDDP) (6 mg/kg CDDP), and TM(CDDP/PTX=2:1) (6 mg/kg CDDP, 3 mg/kg PTX). Treatments were administered 3 times totally via tail vein on day 0, 4 and 8. Animal body weight and tumor volume were monitored every second day. Seven days after the last treatment, about 100 μL of blood was collected via tail bleeding for blood counts. The tumor sizes were measured with electronic calipers, and calculated using the following formula: V=(shortest diameter^2×longest diameter)/2.

[2] = Pharmacokinetics of platinum in plasma after i.v. injection; assay type: in vivo, mice
Protocol: Pharmacokinetics and biodistribution. The blood pharmacokinetics study were performed using female SPF BALB/c mice, which were purchased from Charles River Laboratories Inc. Nanocarriers were administered into mice via tail vein injection with free drug mixture of CDDP/PTX or co-loading TM (CDDP/PTX=2:1) solution at a single equivalent dose of CDDP/PTX 6/3 mg/kg via tail vein. At defined time points (5 min, 0.5 h, 1 h, 2 h, 4 h, 8 h, 24 h and 48 h), blood samples were collected into heparinized tubes and immediately centrifuged at 1,000 rpm for 15 min to obtain plasma. Plasma samples were dissolved on heat in nitric acid and the platinum contents were measured by ICP-MS. The percentage of injected dose in plasma was calculated considering plasma volume in mice to be 45.6 mL/kg. (King F G, Dedrick R L. Physiological pharmacokinetic parameters for cis-dichlorodiammineplatinum(II) (DDP) in the mouse. J Pharmacokinet Biopharm. 1992; 20:95-9.)

Hela cells = test: MTS cytotoxicity and combination index, Hela; assay type: cell-based; conditions: 72 h
[3] = tested on: SKOV-3 ovarian cancer cells; test: MTS cytotoxicity and combination index, SKOV-3; assay type: cell-based, human; conditions: 72 h
Protocol: (§1) In vitro synergistic cytotoxicity: The cytotoxicity of blank micelles and drug-loaded micelle were assessed by measuring the cell viability using the standard MTS assay. SKOV-3 ovarian cancer cells and ES-2 ovarian cancer cells were seeded in 96-well plates at 4×10^3 cells per well in 100 μL of McCoy's 5A with L-glutamine containing 10% fetal bovine serum, supplemented with 50 U/mL penicillin and 50 U/mL streptomycin, and incubated at 37° C. in 5% CO2 atmosphere for 24 h. Different concentrations of the empty micelle solutions and drug-loaded micelles were added into the cell medium. After 72 h incubation, Cell Titer 96® Aqueous Cell Proliferation Reagent, which is composed of MTS and an electron coupling reagent PMS, was added to each well according to the manufacturer's instructions. The cell viability was determined by measuring the absorbance at 490 nm using a micro-plate reader. […]
(§2) The effective method to evaluate synergistic drug combinations in vitro is median-effect analysis, as originally proposed by Chou and Talalay (Chou T C. Theoretical basis, experimental design, and computerized simulation of synergism and antagonism in drug combination studies. Pharmacol Rev. 2006; 58:621-81. Chou T C, Talalay P. Quantitative analysis of dose-effect relationships: the combined effects of multiple drugs or enzyme inhibitors. Adv Enzyme Regul. 1984; 22:27-55.). […]

[4] = cancer treatment in mouse models; cited from earlier work
[5] = Tissue biodistribution of Pt by ICP-MS; assay type: in vivo, nude mice; conditions: 48 h post-injection
Protocol: Free CDDP and TM (CDDP/PTX=2:1) were injected into nude mice via tail vein at a single equivalent dose of CDDP 6 mg/kg. At 48 h post-injection, major organs (heart, liver, spleen, lung and kidney) and tumor tissues were harvested from the mice. The organs were weighed and dissolved in the concentrated nitric acid by heating up (70° C.) and evaporated to dryness, and then re-dissolved in 0.1N HCl for tissue biodistribution of Pt analysis by ICP-MS.

[6] = tested on: ES-2 ovarian cancer cells; test: MTS cytotoxicity and combination index, ES2; assay type: cell-based; conditions: 72 h
Protocol: as §1, §2

[7] = in vivo; cited from earlier work
[8] = tested on: wide variety of cancer cells in culture; conditions: cited from earlier work
[9] = DOX release, dialysis against PBS; assay type: physicochemical; conditions: dialysis against PBS at 37° C.
Protocol: DOX Release. 1 mL of DOX-PEG^5KCHA4-L-Rh4 (1.5:15.0) solution was distributed into three dialysis tube and dialyzed against 50 ml PBS at 37° C., respectively, in comparison with free DOX. The samples were placed in conical tubes filled with PBS, which was refreshed at the time of UV-Vis measuring at 550 nm (FIG. 13). The free DOX was completely released by 10 hours but the loaded DOX remained encapsulated at around 50% by the time the study was finished at 96 hours. This indicates the high DOX binding affinity within PEG^5KCHA4-L-Rh4 micelles and a sustained DOX release would reduce in vivo toxicity of payload drug and increase tumor targeting effects via the prolonged circulating to take EPR effects.

SKOV-3 tumor xenograft = test: NIRF optical animal imaging, in vivo and ex vivo; design: species or system nude mice; conditions: in vivo whole body imaging
Protocol: DiD (a hydrophobic near-infrared (NIR) cyanine dye) was encapsulated in each nanocarrier (together with PTX and CDDP) at a ratio of 2:1:0.1 (CDDP/PTX/DiD by weight) using the same method as described above. The particle size was measured by DLS analysis. 100 μL of TM(DiD-PTX-CDDP) solution was filtered with a 0.22 μm filter to sterilize solution before injection. At the same time, same amount of DiD in DMSO solution was diluted with PBS right before I.V. injection. The fluorescent DiD co-loaded TM with equivalent dose of 6 mg/kg CDDP were injected into nude mice bearing SKOV-3 tumor xenograft via tail vein. Mice were anesthetized via isoflurane and optically imaged at different time points (1 h, 2 h, 4 h, 8 h, 24 h, 48 h and 72 h) using an IVIS 200 (PerkinElmer) with the (excitation/emission 625/700 nm). At the end of the experiments, the animals were sacrificed and all the major organs as well as tumors were excised for ex vivo imaging to determine the in vivo biodistribution of nanoparticles. The associated fluorescence intensities were determined by Living Image software (Caliper Life Sciences) using operator-defined regions of interest (ROI) measurements.

[10] = platinum in plasma, i.v., two compartment model
[11] = first figure of co-loaded cells

Q: With `[NH2][Pt]([NH2])([Cl])[Cl]` [CDDP, Cisplatin] as the compound, how does the medium survival time ([1]; 4 mg/kg CDDP) read?
A: The medium survival time was 15 days.

Q: And the body weight loss ([1]; 4 mg/kg CDDP on days 0, 4, 8, day 12)?
A: Its body weight loss is “exceeded 20%”.

Q: What about the mortality ([1]; 4 mg/kg CDDP, deaths on day 12, 13, 15, 16 and 17) of the same compound?
A: The mortality was “died”.

Q: What about the “WBC count versus PBS control” value ([1]; day 7 after the last injection, 4 mg/kg CDDP) of the same compound?
A: The value was “significantly decreased”.

Q: What about the “Pt of the injected dose in plasma” value ([2]; 30 min after injection) of the same compound?
A: Its value is 5%.

Q: What about the “Pt of the injected dose in plasma” value ([2]; 24 h post injection) of the same compound?
A: The value was “less than 1%”.

Q: And the Cmax ([2]; platinum in plasma, 5 min post iv injection)?
A: Its Cmax is 27600 ng/mL and 27580 ng/mL.

Q: And the AUC ([2]; platinum in plasma, i.v.)?
A: The AUC was 30800 ng·h/mL.

Q: And the CL ([2]; platinum in plasma, i.v.)?
A: Its CL is 2.1645 mL/min/kg.

Q: What about the CL2 ([2]; platinum in plasma, i.v.) of the same compound?
A: The CL2 was 9.3217 mL/min/kg.

Q: What about the Vss ([2]; platinum in plasma, i.v.) of the same compound?
A: Its Vss is 0.6681 L/kg.

Q: What about the t1/2α [2, 10] of the same compound?
A: Its t1/2α is 2.64 min.

Q: What about the t1/2β [2, 10] of the same compound?
A: The t1/2β was 258 min.

Q: What about the “Hela IC50, CDDP concentration” value (Hela cells; [11]) of the same compound?
A: The value was 2.427 µg/mL.

Q: What about the “SKOV-3 IC50, CDDP concentration” value ([3]; first figure of co-loaded cells (CDDP/PTX)) of the same compound?
A: The value was 1.354 µg/mL.

Q: And the “maximum tolerated dose (MTD)” value [4]?
A: The value was at most 4 mg/kg.

Q: And the “kidney/tumor ratio of Pt concentrations” value [5]?
A: Its value is 4.

Q: What about the “liver/tumor ratio of Pt concentrations” value [5] of the same compound?
A: Its value is 2.

Q: What about the “ES2 IC50, CDDP concentration” value [6, 11] of the same compound?
A: Its value is 0.92 µg/mL.

Q: With `CC(=O)O[C@H]1C(=O)[C@@]2(C)[C@H]([C@H](OC(=O)c3ccccc3)[C@]3(O)C[C@H](OC(=O)[C@H](O)[C@@H](NC(=O)c4ccccc4)c4ccccc4)C(C)=C1C3(C)C)[C@]1(OC(C)=O)CO[C@@H]1C[C@@H]2O` [PTX, paclitaxel] as the compound, how does the t1/2 in human [7] read?
A: The t1/2 in human was 20.4 min.

Q: What about the “potency relative to CDDP (IC50s: low nM vs low μM)” value [8] of the same compound?
A: The value was about 1000 times.

Q: And the IC50 (Hela cells; Homo sapiens, HeLa, second figure of co-loaded cells, read-out: Hela IC50, PTX concentration)?
A: The IC50 was 0.02 µg/mL.

Q: What about the IC50 ([3]; Homo sapiens, SK-OV-3, second figure of co-loaded cells (CDDP/PTX), read-out: SKOV-3 IC50, PTX concentration) of the same compound?
A: Its IC50 is 0.032 µg/mL.

Q: What about the IC50 ([6]; second figure of co-loaded cells, read-out: ES2 IC50, PTX concentration) of the same compound?
A: Its IC50 is 0.055 µg/mL.

Q: Which “time to complete DOX release” value [9] does the source give for `COc1cccc2c1C(=O)c1c(O)c3c(c(O)c1C2=O)C[C@@](O)(C(=O)CO)C[C@@H]3O[C@H]1C[C@H](N)[C@H](O)[C@H](C)O1` [free DOX, Doxorubicin] here?
A: Its value is at most 10 h.

Q: With `CCCCCCCCCCCCCCCCCCN1C(=CC=CC=CC2=[N+](CCCCCCCCCCCCCCCCCC)c3ccccc3C2(C)C)C(C)(C)c2ccccc21.[O-][Cl+3]([O-])([O-])[O-]` [free DiD, 1,1′-dioctadecyl-3,3,3,′,3′-tetramethylindodicarbocyanine perchlorate] as the compound, how does the tumor fluorescence (SKOV-3 tumor xenograft) read?
A: Its tumor fluorescence is “very weak tumor fluorescence”.
